Source: paper PMC11758266, “Lipid-Modulated, Graduated Inhibition of N-Glycosylation Pathway Priming Suggests Wide Tolerance of ER Proteostasis to Stress” (ACS Central Science, 2024)

Experiments:
DPAGT1 [1] = biological target: T1, DPAGT1 (Homo sapiens, UniProt Q9H3H5); experiment: Heat-induced denaturation assay of DPAGT1 with bound ligand; type: binding; settings: heat-induced denaturation; DPAGT1 alone 51.7 ± 0.2 °C
T1 sequence (Q9H3H5 1-408): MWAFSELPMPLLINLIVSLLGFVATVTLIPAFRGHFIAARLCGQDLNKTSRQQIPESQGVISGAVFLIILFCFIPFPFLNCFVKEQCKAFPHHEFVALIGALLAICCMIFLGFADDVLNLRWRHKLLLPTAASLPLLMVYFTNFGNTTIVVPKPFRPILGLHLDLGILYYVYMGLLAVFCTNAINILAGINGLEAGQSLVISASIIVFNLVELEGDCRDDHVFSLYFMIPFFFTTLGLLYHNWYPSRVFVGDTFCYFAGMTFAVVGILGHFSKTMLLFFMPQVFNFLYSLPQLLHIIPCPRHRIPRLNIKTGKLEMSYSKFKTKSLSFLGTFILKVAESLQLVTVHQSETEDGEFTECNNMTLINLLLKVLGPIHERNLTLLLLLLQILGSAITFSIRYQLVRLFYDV
Description: The structure of DPAGT1 in complex with the archetypal scaffold natural product tunicamycin[21] […] Trp122 moves so as to use its indole moiety to hydrophobically provide a binding “cap” or “lid” over the proximal portion of the 10′-N lipid chain.

DPAGT1 [2] = biological target: T2, DPAGT1 (Homo sapiens, UniProt Q9H3H5); experiment: DPAGT1 radiometric in vitro activity assay (end point, phosphorimaging of radio-TLC); type: biochemical; settings: for % Activity of DPAGT1 in the presence of a tunicamycin analogue compared to a negative control (GFB): Table S1, analogue 1 µM, DPAGT1 1 µM, dolichyl monophosphate 50 µM, UDP-GlcNAc(1-14C) 50 µM, 37 °C, 21 min, three biological replicates; for DPAGT1 inhibition (in words): inhibitor 1 µM, enzyme:inhibitor 1:1, substrates 50 µM
T2 construct: full-length DPAGT1 bearing an additional tobacco etch virus (TEV) protease-cleavable N-terminal His6 tag; His6 with TEV protease cleavage site ([…]/S leader) (N, cleaved yes); made in house; host or cells: Spodoptera frugiperda Sf9 insect cells (baculovirus, pFB-LIC-Bse vector)
T2 sequence (Q9H3H5 with tags, fused parts or gaps): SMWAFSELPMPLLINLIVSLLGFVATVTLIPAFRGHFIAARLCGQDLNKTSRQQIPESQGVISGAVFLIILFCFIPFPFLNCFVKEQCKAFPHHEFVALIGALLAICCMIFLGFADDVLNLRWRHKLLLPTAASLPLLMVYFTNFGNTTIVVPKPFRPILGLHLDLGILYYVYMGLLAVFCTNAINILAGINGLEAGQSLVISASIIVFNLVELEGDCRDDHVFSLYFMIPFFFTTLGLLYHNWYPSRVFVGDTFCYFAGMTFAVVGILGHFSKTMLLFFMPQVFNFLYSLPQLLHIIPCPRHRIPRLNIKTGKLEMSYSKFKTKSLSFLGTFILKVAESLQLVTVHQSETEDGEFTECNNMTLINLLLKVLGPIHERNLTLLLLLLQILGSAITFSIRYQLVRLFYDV
Description: Figure 2 Design, synthesis and in vitro inhibitory activity of lipid-altered tunicamycins. (A) Structure of DPAGT1 in complex with tunicamycin[21] showing key interactions primarily along TMH5 that in concert with a Trp122 “lid” create the lipid-engagement site (blue). This engagement contrasts with a small, gated pocket below bounded primarily by Leu293 in which only smaller moieties (here an acetamide) are accommodated (red). (B) Guided by this structure, as an apparent snapshot of a Michaelis complex-like mode of binding, modulation at two acyl sites in the core scaffold was explored. […] Semisynthesis allowed generation of graduated lipid tunicamycin analogues through regiochemical differentiation in carbamoylation to generate two key divergent intermediates: Tun-0E,0G and Tun-0E,2G. Subsequent differential acylations allow for generation of both symmetric and asymmetric Tun-XE,YG analogues. Reagents and conditions: (a) Ac2O, pyridine; (b) Boc2O, DMAP, THF; (c) NaOMe, MeOH; (d) 4 M HCl in dioxane, MeOH; (e) HATU, DIPEA, octanoic acid, DMF; (f) HATU, DIPEA, carboxylic acid; (g) HATU, DIPEA, 2 × carboxylic acid. (C) Residual % in vitro activity of DPAGT1 following incubation with analogues [DPAGT1 ([…]), MgCl2 (5 mM), Tun analogue ([…]), dolichol phosphate ([…]), and UDP-GlcNAc(1-^14C) ([…]) in 1% OGNG/CHS/cardiolipin] was assessed through end point assay at 37 °C via phosphorimaging. These were determined on the basis of three biological replicates, each using three technical replicates. Error bars shown are standard deviations.
The intended targeting and graduated modulation of DPAGT1’s PNPT activity was assessed in vitro using a highly pure recapitulated source. Briefly, full-length DPAGT1 bearing an additional tobacco etch virus (TEV) protease-cleavable N-terminal His6 tag was expressed using a baculovirus (DH10Bac)/insect cell (Spodoptera frugiperda Sf9) system using a pFB-LIC-Bse expression vector. DPAGT1 is an integral transmembrane enzyme, and thus, after harvesting and lysis, protein was extracted from the expression host membrane fraction using octyl glucose neopentyl glycol (OGNG) (1% w/v) and cholesterylhemisuccinate (CHS) (0.1% w/v) before isolation and purification by immobilized metal affinity chromatography (IMAC) using a Co^2+-charged (“TALON”) resin and elution with an imidazole gradient. To ensure that there were no confounding effects of the His6 tag, this was then cleaved with TEV protease followed by reverse IMAC and size exclusion chromatography in sequence.
Radiometric bisubstrate analyses allowed excellent sensitivity under the conditions necessary for proper recapitulation of the activity. Purified DPAGT1 (1 μM) was incubated with both substrates, dolichol monophosphate and radiolabeled UDP-N-acetyl-D-[1-^14C]glucosamine, at 50 μM, and the activity was determined directly by end point phosphor detection of product dolichol-PP-N-acetyl-D-[1-^14C]glucosamine formation.
MgCl2, 10 mM imidazole (pH 8.0), 200 mM NaCl , 2 mM TCEP (added fresh), 5% Glycerol, 0.18% OGNG, 0.01 8% CHS, 0.0036% cardiolipin) and the protein was eluted with WB supplemented with 250 mM imidazole (pH 8.0). The eluted protein was desalted using PD-10 columns (GE Healthcare) pre-equilibrated with gel filtration buffer (GFB: 20 mM HEPES (pH […]
cardiolipin). Desalted protein was subsequently treated with 10:1 TEV protease (w:w, protein:enzyme) overnight at 4 ° C. The TEV protease treated protein was separated from the 6-His-tagged enzymes and uncleaved DPAGT1 by incubation for 1 h with Talon resin (prepared as described above) at 4 °C for 1 h. The resin was collected in a column, the flowthrough collected and the protein sample was centrifuged at 21,500 rpm in a Beckman TA25.5 rotor for 10 min at 4 ° C. The supernatant was then concentrated to 0.5 mL using a 30 kDa cutoff PES concentrator (Corning), with mixing every 5 mins during concentration. The […]

ATF4 = ATF4 high-content imaging assay in primary human dermal fibroblasts; type: cell-based; settings: 6 h, Figures S8–S12
Procedure: A targeted panel of tunicamycin analogues was tested in the ATF4 High Content Imaging assay to assess their ER stress generating ability in a primary cell line. Normal adult human dermal fibroblasts (NHDF-Ad, Lonza) were plated in a 96-well Phenoplate (PerkinElmer) at a seeding density of 10,000 cells per well in fibroblast growth medium (containing fibroblast basal medium, 10% FBS, 0.1% insulin, 0.1% hFGF-B, 0.1% Gentamicin/Amphotericin) and incubated at 37°C, 5% CO2. Treatment with pre-diluted compounds was performed after 24 hrs with final concentrations ranging from 10 µM – 5 nM (final DMSO concentration was 0.3%). Low control (0.3% DMSO final conc.) and high control (0.3 µM tunicamycin final conc.) wells were again included for assay normalization. Treated cells were incubated for 6 hrs at 37°C, 5% CO2 before fixing (4% PFA in PBS, 20 min at room temperature followed by washing (3x) with PBS). Direct ATF4 immunofluorescence staining was then performed, whereby cells were treated with a Coralite Plus 488-conjugated ATF4 Polyclonal antibody (CL488-10835, Proteintech) in a 1:100 dilution of Perm-block buffer (10% FBS, 0.3% TritonX-100 in PBS) for 2 hrs. Nuclei staining was then performed with DRAQ5 dye (ab108410, Abcam) at 1:1000 in PBS. Plates were imaged on a Leica SP8 confocal microscope equipped with 488 nm and 633 nm excitation and images were analysed using script-based algorithms as described for HEK cells above. […]

His-tagged IgG-Fc domain = experiment: In cell glycoprotein inhibition assay (IgG-Fc expression, SDS-PAGE and Western blot); type: cell-based, human; settings: HEK293T cells, 3 days, analogue 10 µM down to 0.5 nM (Tun-8E,2G 300 µM down to 15 nM), Figure S13

dolichol-1-phosphate [Dol-1-P]
Tm,1/2 of DPAGT1 bound to ligand (DPAGT1 [1]): 58.5 ± 0.3 °C

CCCCCCCCC(=O)N[C@H]1[C@@H](O[C@@H]2O[C@H](C[C@@H](O)[C@H]3O[C@@H](n4ccc(=O)[nH]c4=O)[C@H](O)[C@@H]3O)[C@H](O)[C@H](O)[C@H]2NC(=O)CC(C)C)O[C@H](CO)[C@@H](O)[C@@H]1O [Tun-i5E,9G]
% Activity of DPAGT1 in the presence of a tunicamycin analogue compared to a negative control (GFB) (DPAGT1 [2]): 90.7% | DPAGT1 inhibition (in words) (DPAGT1 [2]): little to no significant inhibition

CCCCCCCCC(=O)N[C@H]1[C@H](O[C@H]2O[C@H](CO)[C@@H](O)[C@H](O)[C@H]2NC(=O)CCC)O[C@H](C[C@@H](O)[C@H]2O[C@@H](n3ccc(=O)[nH]c3=O)[C@H](O)[C@@H]2O)[C@H](O)[C@@H]1O [Tun-9E,4G]
% Activity of DPAGT1 in the presence of a tunicamycin analogue compared to a negative control (GFB) (DPAGT1 [2]): 83.6% | DPAGT1 inhibition (in words) (DPAGT1 [2]): did not cause a significant reduction in DPAGT1 activity

CCCCCCCC(=O)N[C@H]1[C@H](O[C@H]2O[C@H](CO)[C@@H](O)[C@H](O)[C@H]2NC(=O)CCCCCCC)O[C@H](C[C@@H](O)[C@H]2O[C@@H](n3ccc(=O)[nH]c3=O)[C@H](O)[C@@H]2O)[C@H](O)[C@@H]1O [Tun-8E,8G]
increase in ATF4 (in words) (ATF4): only Tun itself leads to an increase in ATF4 | glycosylation state of expressed IgG-Fc (in words) (His-tagged IgG-Fc domain): expression of intact glycosylated protein | % Activity of DPAGT1 in the presence of a tunicamycin analogue compared to a negative control (GFB) (DPAGT1 [2]): 90.0% | DPAGT1 inhibition (in words) (DPAGT1 [2]): little to no significant inhibition
